Measured values: patent US12617779B2, “Self degradation-type CDK9 inhibitor prodrug and liposome encapsulating same” (Sumitomo Pharma Co., Ltd., priority 2021, dated 2026)

Columns and labels:
[1] = Evaluation of conversion rate to active form in BALB/c mouse plasma (Experimental Example 3); format: in vitro ADME; conditions: 0.2 μmol/L; for Conversion to Alvocidib in BALB/c mouse plasma: Examples up to 60 minutes, Comparative Examples up to 120 minutes
Procedure, shortened: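 LC-MS/MS (positive ESI) followed the parent and released Alvocidib during 37° C incubation of 0.2 μmol/L compound in human or BALB/c mouse plasma, sampled at 0/30/60 or 0/60/120 min. Remaining parent is expressed versus the 0-min peak; conversion versus a 0.2 μmol/L Alvocidib standard.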

[2] = Pharmacokinetic test, intravenous solution and liposome formulations in mice (Experimental Example 6); format: in vivo; conditions: female BALB/c mice
Procedure: This was used as a solution formulation.
This was used as a liposome formulation.
Hydrogenated soybean phosphatidylcholine (COATSOME NC-21E, manufactured by NOF CORPORATION, 3.238 g), cholesterol (manufactured by Sigma, 1.160 g) and 1,2-disteroyl-rac-glycero-3-methylpolyoxyethylen 2000 (SUNBRIGHT GS-020, manufactured by NOF CORPORATION, 0.983 g) were dissolved in tert-butyl alcohol (300 mL) warmed to 65° C. The solution was placed in an eggplant flask and frozen in a dry ice-acetone bath, and then the tert-butyl alcohol was removed by evaporation under reduced pressure to give a lipid mixture.
To the above lipid mixture was added to a 250 mM ammonium sulfate solution (100 mL), and the mixture was warmed to 65° C., and dispersed by a homogenizer (ULTRA-TURRAX, manufactured by IKA) to give a crude liposome dispersion. […] The solution was filtered through a 0.22 μm membrane filter to adjust the total lipid concentration to 75 mM (75 μmol/mL). […] The solution was adjusted to pH 5 to 6 with 1 mol/L aqueous sodium hydroxide solution, warmed in a 65° C. water bath for 3 minutes, and ice-cooled. The liposome outer solution was replaced with 10 mM tartrate buffer solution/10% sucrose solution (pH 4) using a dialysis cassette (Slide-A-Lyzer G2 Dialysis Cassettes 20K MWCO, manufactured by Thermo Scientific), followed by filtration through a 0.22 μm membrane filter to adjust the concentration.
The solution formulation or liposome formulation was instantly administered intravenously to 7-week-old female BALB/c mice, and the blood was collected over time from the jugular vein without anesthesia up to 24 hours after administration for the solution formulation administration group and up to 72 hours after administration for the liposome formulation administration group. […] The plasma sample was centrifuged, and the concentrations of the test compound and Alvocidib in the obtained supernatant were determined by LC-MS/MS.

| SMILES | Production rate (%) of Alvocidib ([1]; BALB/c, mouse, 0 min) | Residual rate (%) of test compound ([1]; BALB/c, mouse, 0 min) | Production rate (%) of Alvocidib ([1]; BALB/c, mouse, 60 min) | Residual rate (%) of test compound ([1]; BALB/c, mouse, 60 min) | Production rate (%) of Alvocidib ([1]; BALB/c, mouse, 120 min) | Residual rate (%) of test compound ([1]; BALB/c, mouse, 120 min) | Blood retention of liposome formulation compared with the corresponding solution formulation [2] | Conversion to Alvocidib in BALB/c mouse plasma ([1]; 37° C.) | Residual rate (%) of test compound ([1]; Mouse plasma, 37° C., 0 min) | Residual rate (%) of test compound ([1]; Mouse plasma, 37° C., 30 min) | Residual rate (%) of test compound ([1]; Mouse plasma, 37° C., 60 min) |
| --- | --- | --- | --- | --- | --- | --- | --- | --- | --- | --- | --- |
| C[C@H](N)C(=O)O[C@@H]1CN(C)CC[C@@H]1c1c(O)cc(O)c2c(=O)cc(-c3ccccc3Cl)oc12 [Comparative Example 7, reference compound] | 1% | 100% | 64% | 25% | 79% | 10% |  |  |  |  |  |
| CN1CC[C@H](c2c(O)cc(O)c3c(=O)cc(-c4ccccc4Cl)oc23)[C@H](OC(=O)[C@@H](N)CO)C1 [Comparative Example 9, reference compound] | 3% | 100% | 33% | 70% | 43% | 54% |  |  |  |  |  |
| CCN(C[C@@H]1CCCCN1)C(=O)Oc1cc(O)c2c(=O)cc(-c3ccccc3Cl)oc2c1[C@H]1CCN(C)C[C@H]1O [Example 1, 2-(2-chlorophenyl)-5-hydroxy-8-[(3S,4R)-3-hydroxy-1-methylpiperidin-4-yl]-4-oxo-4H-1-benzopyran-7-yl ethyl{[(2S)-piperidin-2-yl]methyl}carbamate ditrifluoroacetate] |  |  |  |  |  |  | higher blood retention | proceeded rapidly | 100% | 24% | 3% |
| CCN(C[C@H]1CCCCN1)C(=O)Oc1cc(O)c2c(=O)cc(-c3ccccc3Cl)oc2c1[C@H]1CCN(C)C[C@H]1O [Example 2, 2-(2-chlorophenyl)-5-hydroxy-8-[(3S,4R)-3-hydroxy-1-methylpiperidin-4-yl]-4-oxo-4H-1-benzopyran-7-yl ethyl{[(2R)-piperidin-2-yl]methyl}carbamate] |  |  |  |  |  |  | higher blood retention | proceeded rapidly | 100% | 25% | 4% |
| CN1CC[C@H](c2c(OC(=O)N(C)C[C@@H]3CCCCN3)cc(O)c3c(=O)cc(-c4ccccc4Cl)oc23)[C@H](O)C1 [Example 3, 2-(2-chlorophenyl)-5-hydroxy-8-[(3S,4R)-3-hydroxy-1-methylpiperidin-4-yl]-4-oxo-4H-1-benzopyran-7-yl methyl{[(2S)-piperidin-2-yl]methyl}carbamate] |  |  |  |  |  |  | higher blood retention | proceeded rapidly | 100% | 8% | 0% |
| CN1CC[C@H](c2c(OC(=O)N(C)C[C@H]3CCCCN3)cc(O)c3c(=O)cc(-c4ccccc4Cl)oc23)[C@H](O)C1 [Example 4, 2-(2-chlorophenyl)-5-hydroxy-8-[(3S,4R)-3-hydroxy-1-methylpiperidin-4-yl]-4-oxo-4H-1-benzopyran-7-yl methyl{[(2R)-piperidin-2-yl]methyl}carbamate] |  |  |  |  |  |  | higher blood retention | proceeded rapidly | 100% | 5% | 3% |
| CCCN(C[C@@H]1CCCCN1)C(=O)Oc1cc(O)c2c(=O)cc(-c3ccccc3Cl)oc2c1[C@H]1CCN(C)C[C@H]1O [Example 5, 2-(2-chlorophenyl)-5-hydroxy-8-[(3S,4R)-3-hydroxy-1-methylpiperidin-4-yl]-4-oxo-4H-1-benzopyran-7-yl {[(2S)-piperidin-2-yl]methyl}propylcarbamate] |  |  |  |  |  |  | higher blood retention | proceeded rapidly | 100% | 36% | 8% |
| CCCN(C[C@H]1CCCCN1)C(=O)Oc1cc(O)c2c(=O)cc(-c3ccccc3Cl)oc2c1[C@H]1CCN(C)C[C@H]1O [Example 6, 2-(2-chlorophenyl)-5-hydroxy-8-[(3S,4R)-3-hydroxy-1-methylpiperidin-4-yl]-4-oxo-4H-1-benzopyran-7-yl {[(2R)-piperidin-2-yl]methyl}propylcarbamate] |  |  |  |  |  |  | higher blood retention | proceeded rapidly | 100% | 26% | 2% |
| CN1CC[C@H](c2c(OC(=O)N(CCF)CC3CCCCN3)cc(O)c3c(=O)cc(-c4ccccc4Cl)oc23)[C@H](O)C1 (stereo partly drawn) [Example 11, 2-(2-chlorophenyl)-5-hydroxy-8-[(3S,4R)-3-hydroxy-1-methylpiperidin-4-yl]-4-oxo-4H-1-benzopyran-7-yl (2-fluoroethyl) [(piperidin-2-yl)methyl]carbamate] |  |  |  |  |  |  | higher blood retention |  |  |  |  |
